Assay results taken from US20230045421A1 (priority 2018, published 2023).

What follows are compounds tested on HBV rcDNA (assay: HepDE19 assay with bDNA quantitation of HBV rcDNA). Conditions: HepDE19 assay, inhibition of formation of rcDNA; read-out: DE-19bDNA EC50.
Assay type: cell-based, hepatitis B virus
Outline: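 HepDE19 cells (HepG2-derived, Tet-regulated HBV replication) were deprived of tetracycline and then exposed to compounds for 7 days at 37 °C in 0.5% DMSO, 8-point titration from 25 μM. rcDNA was quantified by bDNA and EC50/EC90 came from 4-parameter fits. CC50 was measured by CellTiter-Glo ATP content on replicate plates after 4 days.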
`CCN(C(=O)Nc1ccc(F)c(Cl)c1)C(c1cnc(OC)c2ccccc12)C1CC1` (single isomer, unassigned) [Compound 40, 3-(3-Chloro-4-fluorophenyl)-1-(cyclopropyl(1-methoxyisoquinolin-4-yl)methyl)-1-ethylurea] gave an EC50 of 20 µM.
In the case of `COc1ncc(C(CCO)NC(=O)Nc2ccc(F)c(Cl)c2)c2ccccc12` (single isomer, unassigned) [Compound 77, 1-(3-Chloro-4-fluorophenyl)-3-(3-hydroxy-1-(1-methoxyisoquinolin-4-yl)propyl)urea], the EC50 is reported as 7.4 µM.
Work on `CCCCN(C(=O)Nc1ccc(F)c(Cl)c1)C(C)c1cnc(OC)c2ccccc12` (single isomer, unassigned) [Compound 62, 1-Butyl-3-(3-chloro-4-fluorophenyl)-1-(1-(1-methoxyisoquinolin-4-yl)ethyl)urea] yielded an EC50 of 7.1 µM.
Work on `CC(c1c[nH]c(=O)c2ccccc12)N(CCS(C)(=O)=O)C(=O)Nc1ccc(F)c(Cl)c1` (single isomer, unassigned) [Compound 108, 3-(3-Chloro-4-fluorophenyl)-1-(2-(methylsulfonyl)ethyl)-1-(1-(1-oxo-1,2-dihydroisoquinolin-4-yl)ethyl)urea] yielded an EC50 of 0.05 µM.
Work on `CC(c1c[nH]c(=O)c2cnccc12)N(CCCO)C(=O)Nc1ccc(F)c(Cl)c1` (single isomer, unassigned) [Compound 251, 3-(3-Chloro-4-fluorophenyl)-1-(3-hydroxypropyl)-1-(1-(1-oxo-1,2-dihydro-2,7-naphthyridin-4-yl)ethyl)urea] yielded an EC50 of 15 µM.
With `CC(c1c[nH]c(=O)c2ccccc12)N(CCCCO)C(=O)Nc1ccc(F)c(Cl)c1` (single isomer, unassigned) [Compound 150, 3-(3-Chloro-4-fluorophenyl)-1-(4-hydroxybutyl)-1-(1-(1-oxo-1,2-dihydroisoquinolin-4-yl)ethyl)urea] the EC50 was 0.01 µM.
`CCC(c1cnc(OC)c2ccccc12)N(CC)C(=O)Nc1ccc(F)c(Cl)c1` (single isomer, unassigned) [Compound 38, 3-(3-Chloro-4-fluorophenyl)-1-ethyl-1-(1-(1-methoxyisoquinolin-4-yl)propyl)urea] gave an EC50 of 18 µM.
`CC(c1c[nH]c(=O)c2ccccc12)N(CCC#N)C(=O)Nc1ccc(F)c(Cl)c1` (single isomer, unassigned) [Compound 112, 3-(3-Chloro-4-fluorophenyl)-1-(2-cyanoethyl)-1-(1-(1-oxo-1,2-dihydroisoquinolin-4-yl)ethyl)urea] gave an EC50 of 2.8 µM.

Same assay, conditions: HepDE19 assay, inhibition of formation of relaxed circular DNA (rcDNA), bDNA quantitation; read-out: DE-19bDNA EC50
`CC(c1c[nH]c(=O)c2cc(F)c(F)cc12)N(C)C(=O)Nc1cccc(F)c1F` (single isomer, unassigned) [Compound 430, 1-(1-(6,7-Difluoro-1-oxo-1,2-dihydroisoquinolin-4-yl)ethyl)-3-(2,3-difluorophenyl)-1-methylurea] showed an EC50 of 12 µM.
For `CC(c1c[nH]c(=O)c2cc(F)c(F)cc12)N(C)C(=O)Nc1ccc(F)c(F)c1` (single isomer, unassigned) [Compound 408, 1-(1-(6,7-Difluoro-1-oxo-1,2-dihydroisoquinolin-4-yl)ethyl)-3-(3,4-difluorophenyl)-1-methylurea], the EC50 was 3.4 µM.
`CC(c1cnc(C#N)c2ccccc12)N(C)C(=O)Nc1ccc(F)c(Cl)c1` (single isomer, unassigned) [Compound 336, 3-(3-Chloro-4-fluorophenyl)-1-(1-(1-cyanoisoquinolin-4-yl)ethyl)-1-methylurea] showed an EC50 of 19 µM.
`CC(c1c[nH]c(=O)c2ccccc12)N(Cc1cccnc1)C(=O)Nc1ccc(F)c(Cl)c1` (single isomer, unassigned) [Compound 306, 3-(3-Chloro-4-fluorophenyl)-1-(1-(1-oxo-1,2-dihydroisoquinolin-4-yl)ethyl)-1-(pyridin-3-ylmethyl) urea] was tested, and the EC50 was 1 µM.
`CC(c1c[nH]c(=O)c2c(F)c(F)ccc12)N(C)C(=O)Nc1ccc(F)c(F)c1` (single isomer, unassigned) [Compound 434, 1-(1-(7,8-Difluoro-1-oxo-1,2-dihydroisoquinolin-4-yl)ethyl)-3-(3,4-difluorophenyl)-1-methylurea] was tested, and the EC50 was 3.2 µM.
Compound `CC(c1c[nH]c(=O)c2cc(F)ccc12)N(CCS(N)(=O)=O)C(=O)Nc1ccc(F)c(Cl)c1` (single isomer, unassigned) [Compound 384, 2-(3-(3-Chloro-4-fluorophenyl)-1-(1-(7-fluoro-1-oxo-1,2-dihydroisoquinolin-4-yl)ethyl)ureido) ethane-1-sulfonamide] has an EC50 of 0.01 µM.
With `CCN(C(=O)Nc1ccc(F)c(Cl)c1)C(C)c1c[nH]c(=O)c2c(F)c(F)ccc12` (single isomer, unassigned) [Compound 468, 3-(3-Chloro-4-fluorophenyl)-1-(1-(7,8-difluoro-1-oxo-1,2-dihydroisoquinolin-4-yl)ethyl)-1-ethylurea] the EC50 was 1.1 µM.

Same assay, conditions: Hepatitis B virus, HepDE19, HepDE19 assay, inhibition of formation of rcDNA; read-out: DE-19bDNA EC50
Work on `COc1ncc(CN(CCO)C(=O)Nc2ccc(F)c(Cl)c2)c2ccccc12` [Compound 21, 3-(3-Chloro-4-fluorophenyl)-1-(2-hydroxyethyl)-1-((1-methoxyisoquinolin-4-yl)methyl)urea] yielded an EC50 of 18 µM.
Work on `CCN(Cc1cncc2ccccc12)C(=O)Nc1ccc(F)c(Cl)c1` [Compound 16, 3-(3-Chloro-4-fluorophenyl)-1-ethyl-1-(isoquinolin-4-ylmethyl)urea] yielded an EC50 of 1.7 µM.
With `C[C@H](c1c[nH]c(=O)c2ccccc12)N(C)C(=O)Nc1ccc(F)c(Cl)c1` [Compound 14, (R)-3-(3-chloro-4-fluorophenyl)-1-methyl-1-(1-(1-oxo-1,2-dihydroisoquinolin-4-yl)ethyl)urea] the EC50 was 0.04 µM.
With `CCN(Cc1cn(C)c(=O)c2ccccc12)C(=O)Nc1ccc(F)c(Cl)c1` [Compound 18, 3-(3-Chloro-4-fluorophenyl)-1-ethyl-1-((2-methyl-1-oxo-1,2-dihydroisoquinolin-4-yl)methyl)urea] the EC50 was 0.26 µM.
Compound `CCCCN(Cc1cnc(OC)c2ccccc12)C(=O)Nc1ccc(F)c(Cl)c1` [Compound 33, 1-Butyl-3-(3-chloro-4-fluorophenyl)-1-((1-methoxyisoquinolin-4-yl)methyl)urea] has an EC50 of 0.62 µM.

Same assay, conditions: Hepatitis B virus, HepDE19, read-out: DE-19bDNA EC50 (μM), HepDE19 assay, inhibition of formation of rcDNA
`C[C@H](c1c[nH]c(=O)c2ccccc12)N(C)C(=O)Nc1ccnc(C(F)(F)F)c1` (single isomer, unassigned) [Compound 95] gave an EC50 of 1.1 µM.
With `C[C@H](c1c[nH]c(=O)c2ccccc12)N(C)C(=O)Nc1cccc(F)c1` [Compound 93, (R)-3-(3-Fluorophenyl)-1-methyl-1-(1-(1-oxo-1,2-dihydroisoquinolin-4-yl)ethyl)urea] the EC50 was 0.52 µM.

Same assay, conditions: Hepatitis B virus, HepDE19, read-out: DE-19bDNA EC50 (μM), HepDE19 assay, inhibition of formation of relaxed circular DNA (rcDNA), bDNA quantitation
Work on `CC(c1c[nH]c(=O)c2c(F)c(F)ccc12)N(C)C(=O)Nc1cccnc1` (single isomer, unassigned) [Compound 450, 1-(1-(7,8-Difluoro-1-oxo-1,2-dihydroisoquinolin-4-yl)ethyl)-1-methyl-3-(pyridin-3-yl)urea] yielded an EC50 of 5.4 µM.

Same assay, conditions: read-out: DE-19bDNA EC50; HepDE19 assay, inhibition of formation of rcDNA
`CC(c1c[nH]c(=O)c2ccccc12)N(CC[C@H](C)O)C(=O)Nc1ccc(F)c(Cl)c1` (single isomer, unassigned) [Compound 214] showed an EC50 of 0.047 µM.

Same assay, conditions: read-out: DE-19bDNA EC50; HepDE19 assay, inhibition of formation of relaxed circular DNA (rcDNA), bDNA quantitation
`CC(c1c[nH]c(=O)c2c(F)c(F)ccc12)N(C)C(=O)Nc1cc(Cl)cc(Cl)c1` (single isomer, unassigned) [Compound 447, 3-(3,5-Dichlorophenyl)-1-(1-(7,8-difluoro-1-oxo-1,2-dihydroisoquinolin-4-yl)ethyl)-1-methylurea] showed an EC50 of 6.5 µM.
